Earlier results on one compound are cited in US7128928B2, “Ophthalmic formulation with novel gum composition” (Pharmacia Corporation, priority 2002, dated 2006).

This series has as its system infective gram-positive bacteria.

As for `CC(=O)NC[C@H]1CN(c2ccc(N3CCOCC3)c(F)c2)C(=O)O1` [linezolid], the MIC90 entry is recorded as “about 4 μg/ml”.
